Results published in US20260355192A1, “PROPHYLACTIC OR THERAPEUTIC AGENT FOR PERIOSTIN-MEDIATED DISEASE AND PRURITUS ASSOCIATED THEREWITH” (SAGA UNIVERSITY, priority 2022, published 2026).

Tests used:
[1] = tested on: scratching behaviors in FADS mice; test: Scratching behaviors in FADS mice upon single systemic administration of αvβ3 integrin inhibitors; type: in vivo, mouse (FADS, Nestin-cre/Ikk2ff); details: for % Change from baseline in the number of scratchings (mean ± standard error): 53.7 μmol/kg i.p., single, 60 minutes after administration vs before administration; for grade of effect on % change from the baseline in the number of scratchings: single i.p., 53.7 μmol/kg (GLPG-0187 5.37 μmol/kg), paired t-test
Description: Nestin-cre transgenic mice were crossed with IKK2^ff mice to prepare Nestin-cre/Ikk2^ff mice specifically lacking IKK2 in their facial skin fibroblasts (Nunomura S, et al. J Invest Dermatol. 139:1274-1283, 2019). These mice inevitably develop atopic dermatitis-like rash limited to the face and intense itchy symptoms, and were therefore designated as Facial Atopic Dermatitis with Scratching (FADS) mice. […] For evaluation of the prophylactic or therapeutic agent of the present invention, FADS mice at 3 to 4 weeks of age or older were used because of showing spontaneous scratching behaviors. It should be noted that in this Example section, the above compound of formula (I) (more particularly “CP4715”) was used as the prophylactic or therapeutic agent of the present invention.
FADS mice were acclimated for 20 minutes to the environment of a recording cage, and then recorded with a video camera. The recorded videos were replayed, and scratching behaviors were counted assuming that hind paw scratching to the face and the subsequent movement of toe licking or paw lowering to the ground were regarded as one cycle of scratching behavior.
Prior to the administration of the above αvβ3 integrin inhibitors, FADS mice were recorded for 60 minutes with a video camera and then allowed to rest for 15 minutes. The compounds except for GLPG-0187 were each dissolved at 89.5 mM in a diluent (physiological saline containing 50% DMSO and 89.5 mM HCL), from which an amount corresponding to 53.7 μmol/kg per mouse was then taken and diluted with 0.3 mL of PBS, and then administered intraperitoneally. […] Mice administered with 0.3 mL of PBS containing an equal amount of the diluent as calculated based on the body weight were used as a control group.
The mice were recorded for 60 minutes with a video camera immediately after administration of the above αvβ3 integrin inhibitors. The number of scratchings before administration was used as a baseline, and % change from the baseline after administration was calculated for each compound. For statistical analysis, paired t-test was used. A P-value of less than 0.05 was considered to be statistically significant. The effect of an inhibitor whose mean change from the baseline was −65% or more at a P-value of less than 0.01 was expressed as “++”; the effect of an inhibitor whose mean change from the baseline was −60% or less at a P-value of less than 0.05 was expressed as “+”; and the effect of an inhibitor whose mean change from the baseline was −60% or less at a P-value of 0.05 or higher was expressed as “−.”

integrin αvβ3 [2] = target: T1, integrin αvβ3 (Homo sapiens, UniProt P05106+P06756); test: Inhibition of periostin-dependent adhesion of SW480 cells expressing integrin αvβ3; type: cell-based; details: immobilized recombinant human periostin, FIG. 6; for IC50: SW480 cells expressing human integrin β3, compounds at 0.001-1 μM, read-out: 50% inhibition concentration (IC50 value) for cell adhesion inhibitory activity; for cell adhesion inhibitory effect (in words): SW480 cells expressing integrin αvβ3
T1 construct: SW480 cells, a human colon cancer cell line not expressing integrin β3; expressed in transfected cells; host or cells: SW480 cells (human colon cancer) stably expressing human integrin β3
Experimental: For use in cell adhesion experiments, SW480 cells, a human colon cancer cell line not expressing integrin β3, were genetically engineered to stably express human integrin β3 (Nanri Y, et al. Am J Respir Cell Mol Biol. 62:204-216, 2020). The compounds shown in Table 1 were examined for their inhibitory activity against adhesion between integrin αvβ3 and periostin according to the following procedures. First, a 96-well plate was treated with 10 μg/mL recombinant human periostin (Bio-Techne) at 4 °C for 16 hours to immobilize periostin. The SW480 cells expressing integrin αvβ3 (5×10^4 cells) were reacted at room temperature for 15 minutes with the above compounds at 0.001, 0.01, 0.1 and 1 μM in serum-free DMEM (Dulbecco's Modified Eagle Medium) containing 0.5% bovine serum albumin and 0.25 mM MnCl2. A group receiving no compound was used as a control. The reacted cell suspensions were added to separate wells of the above human periostin-immobilized plate, and the plate was centrifuged at 10×g for 5 minutes and then cultured at 37 °C for 60 minutes. Then, after the adhered cells were washed to remove unbound cells, the adhered cells were fixed with 1% formaldehyde and stained with 0.5% crystal violet. The fixed and stained cells were solubilized with 0.2% Triton X-100 and measured for absorbance at 595 nm. The absorbance of the control (i.e., the group receiving no compound) was set to 0% inhibition. […] Cell adhesion in this test system is periostin-dependent, and a compound inhibiting this cell adhesion can be referred to as a periostin receptor antagonist.

integrin αvβ3 [3] = details: cited from earlier work
IL-31 receptor = details: Kabashima K, et al. N Engl J Med. 383:141-150, 2020; cited from earlier work

T1 sequence (P06756 31-889 limits assumed): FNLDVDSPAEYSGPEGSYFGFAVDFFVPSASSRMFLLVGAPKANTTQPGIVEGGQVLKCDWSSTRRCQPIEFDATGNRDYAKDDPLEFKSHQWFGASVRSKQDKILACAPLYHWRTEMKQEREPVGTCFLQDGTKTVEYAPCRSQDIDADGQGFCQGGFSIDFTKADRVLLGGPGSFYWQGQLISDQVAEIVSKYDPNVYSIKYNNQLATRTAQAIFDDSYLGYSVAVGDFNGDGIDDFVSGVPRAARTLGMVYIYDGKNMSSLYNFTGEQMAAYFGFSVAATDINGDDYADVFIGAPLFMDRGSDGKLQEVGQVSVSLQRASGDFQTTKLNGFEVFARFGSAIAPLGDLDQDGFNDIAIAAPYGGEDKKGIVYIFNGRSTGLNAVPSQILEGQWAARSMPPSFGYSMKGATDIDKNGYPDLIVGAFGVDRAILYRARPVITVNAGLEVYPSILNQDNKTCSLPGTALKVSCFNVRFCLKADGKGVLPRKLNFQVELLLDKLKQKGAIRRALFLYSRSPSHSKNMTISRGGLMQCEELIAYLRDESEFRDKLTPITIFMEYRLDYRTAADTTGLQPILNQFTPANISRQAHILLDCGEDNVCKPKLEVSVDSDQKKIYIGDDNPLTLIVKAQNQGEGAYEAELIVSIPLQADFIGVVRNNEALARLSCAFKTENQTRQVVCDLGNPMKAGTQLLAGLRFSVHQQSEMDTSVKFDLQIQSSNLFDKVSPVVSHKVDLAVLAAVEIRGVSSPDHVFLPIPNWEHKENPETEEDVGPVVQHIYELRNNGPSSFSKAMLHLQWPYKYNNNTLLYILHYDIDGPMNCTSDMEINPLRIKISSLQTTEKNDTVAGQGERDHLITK
T1 sequence (P06756 891-1048 partner limits assumed): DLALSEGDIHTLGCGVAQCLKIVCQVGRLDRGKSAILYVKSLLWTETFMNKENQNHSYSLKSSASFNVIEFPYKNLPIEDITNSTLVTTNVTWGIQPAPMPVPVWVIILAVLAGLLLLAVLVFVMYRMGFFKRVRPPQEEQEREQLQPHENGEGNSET
T1 sequence (P05106 27-788): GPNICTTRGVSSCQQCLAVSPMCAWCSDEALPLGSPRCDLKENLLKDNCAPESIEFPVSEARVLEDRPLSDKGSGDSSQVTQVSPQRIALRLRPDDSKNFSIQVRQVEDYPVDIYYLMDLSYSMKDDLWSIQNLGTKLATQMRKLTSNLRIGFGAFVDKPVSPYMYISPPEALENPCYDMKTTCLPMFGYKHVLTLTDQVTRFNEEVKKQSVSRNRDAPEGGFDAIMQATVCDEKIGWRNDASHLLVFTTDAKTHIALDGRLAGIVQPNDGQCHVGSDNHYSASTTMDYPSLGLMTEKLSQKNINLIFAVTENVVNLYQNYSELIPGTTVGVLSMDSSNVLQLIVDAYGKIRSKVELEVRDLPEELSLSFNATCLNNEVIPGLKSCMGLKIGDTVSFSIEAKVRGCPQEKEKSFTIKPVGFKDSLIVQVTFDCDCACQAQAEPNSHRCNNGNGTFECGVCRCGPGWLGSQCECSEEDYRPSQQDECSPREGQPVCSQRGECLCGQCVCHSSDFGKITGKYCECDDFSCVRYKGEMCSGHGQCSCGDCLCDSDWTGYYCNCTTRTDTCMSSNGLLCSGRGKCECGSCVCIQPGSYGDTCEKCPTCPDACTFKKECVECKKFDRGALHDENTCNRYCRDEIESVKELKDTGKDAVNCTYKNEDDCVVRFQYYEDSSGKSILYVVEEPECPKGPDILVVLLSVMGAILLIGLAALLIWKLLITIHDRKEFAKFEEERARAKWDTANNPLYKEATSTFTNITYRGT

Molecule	IC50 (integrin αvβ3 [2])	cell adhesion inhibitory effect (in words) (integrin αvβ3 [2])	% Change from baseline in the number of scratchings (mean ± standard error) [1]	grade of effect on % change from the baseline in the number of scratchings [1]	inhibition of binding between integrin αvβ3 and vitronectin (integrin αvβ3 [3])	pruritus (IL-31 receptor)	skin inflammation (IL-31 receptor)
CC(C)COC(=O)N[C@@H](CCC(=O)N1CCN(c2cccc(NC3=NCC(F)CN3)c2)CC1)C(=O)O (stereo partly drawn) [BS-1417, (2S)-5-(4-(3-((5-fluoro-1,4,5,6-tetrahydropyrimidin-2-yl)amino)phenyl)piperazin-1-yl)-2-((isobutoxycarbonyl)amino)-5-oxopentanoic acid]	≥ 1000 nM	–	−43.3 ± 11.9%	+ (mean change from the baseline was −60% or less at a P-value of less than 0.05)	–	–	–
O=C(NC[C@H](NS(=O)(=O)c1ccccc1)C(=O)O)c1ccc(N2CCC(NC3=NCCCN3)CC2)c(F)c1 [CP derivative 2, (S)-3-(3-fluoro-4-(4-((1,4,5,6-tetrahydropyrimidin-2-yl)amino)piperidin-1-yl)benzamido)-2-(phenylsulfonamido)propanoic acid]	≤ 1 nM	high	−30.2 ± 18.6%	− (mean change from the baseline was −60% or less at a P-value of 0.05 or higher)	–	–	–
O=C(NC[C@H](NS(=O)(=O)c1ccccc1)C(=O)O)c1ccc(N2CCC[C@H](NC3=NCCCN3)C2)cc1F [CP derivative 7, (S)-3-(2-fluoro-4-((S)-3-((1,4,5,6-tetrahydropyrimidin-2-yl)amino)piperidin-1-yl)benzamido)-2-(phenylsulfonamido)propanoic acid]	≤ 1 nM	high	−52.0 ± 26.6%	− (mean change from the baseline was −60% or less at a P-value of 0.05 or higher)	–	–	–
O=C(NC[C@H](NS(=O)(=O)c1cccs1)C(=O)O)c1ccc(N2CCC[C@H](NC3=NCCCN3)C2)cc1 [CP derivative 9, (S)-3-(4-((S)-3-((1,4,5,6-tetrahydropyrimidin-2-yl)amino)piperidin-1-yl)benzamido)-2-(thiophene-2-sulfonamido)propanoic acid]	≤ 1 nM	high	−24.5 ± 19.9%	− (mean change from the baseline was −60% or less at a P-value of 0.05 or higher)	–	–	–
CC(C)[C@H]1C(=O)N[C@@H](CCCNC(=N)N)C(=O)NCC(=O)N[C@@H](CC(=O)O)C(=O)N[C@H](Cc2ccccc2)C(=O)N1C [Cilengitide, 2-((2S,5R,8S,11S)-5-benzyl-11-(3-guanidinopropyl)-8-isopropyl-7-methyl-3,6,9,12,15-pentaoxo-1,4,7,10,13-pentaazacyclopentadecan-2-yl)acetic acid]	–	–	−31.7 ± 17.8%	–	–	–	–
O=C(O)C[C@H]1Cc2ccc(OCCCNc3ccccn3)cc2CN(CC(F)(F)F)C1=O [SB-267268 enantiomer, (R)-2-(3-oxo-8-(3-(pyridin-2-ylamino)propoxy)-2-(2,2,2-trifluoroethyl)-2,3,4,5-tetrahydro-1H-benzo[c]azepin-4-yl)acetic acid]	≥ 1000 nM	–	+45.5 ± 28.8%	–	–	–	–
nemolizumab: anti-IL-31 receptor antibody (antibody, chains of the INN, looked up) heavy: QVQLVQSGAEVKKPGASVKVSCKASGYTFTGYIMNWVRQAPGQGLEWMGLINPYNGGTDYNPQFQDRVTITADKSTSTAYMELSSLRSEDTAVYYCARDGYDDGPYTLETWGQGTLVTVSSASTKGPSVFPLAPSSKSTSGGTAALGCLVKDYFPEPVTVSWNSGALTSGVHTFPAVLQSSGLYSLSSVVTVPSSNFGTQTYTCNVDHKPSNTKVDKTVERKSCVECPPCPAPPVAGPSVFLFPPKPKDTLMISRTPEVTCVVVDVSQEDPEVQFNWYVDGVEVHNAKTKPREEQFNSTFRVVSVLTVVHQDWLNGKEYKCKVSNKGLPAPIEKTISKTKGQPREPQVYTLPPSQEEMTKNQVSLTCLVKGFYPSDIAVEWESNGQPENNYKTTPPMLDSDGSFFLYSKLTVDKSRWQEGNVFSCSVMHEALHNHYTQKSLSLSP light: DIQMTQSPSSLSASVGDRVTITCQASEDIYSFVAWYQQKPGKAPKLLIYNAQTEAQGVPSRFSGSGSGTDFTLTISSLQPEDFATYYCQHHYDSPLTFGGGTKVEIKRTVAAPSVFIFPPSDEQLKSGTASVVCLLNNFYPREAKVQWKVDNALQSGNSQESVTEQDSKDSTYSLSSTLTLSKADYEKHKVYACEVTHQGLSSPVTKSFNRGEC	–	–	–	–	–	improve pruritus	improving effect on skin inflammation

Continued, in another order:

IC50 (integrin αvβ3 [2])	cell adhesion inhibitory effect (in words) (integrin αvβ3 [2])	Molecule	% Change from baseline in the number of scratchings (mean ± standard error) [1]	grade of effect on % change from the baseline in the number of scratchings [1]	inhibition of binding between integrin αvβ3 and vitronectin (integrin αvβ3 [3])	pruritus (IL-31 receptor)	skin inflammation (IL-31 receptor)
≤ 20 nM	moderate	O=C(O)C[C@@H]1Cc2ccc(OCCCNc3ccccn3)cc2CN(CC(F)(F)F)C1=O [SB-267268, (S)-2-(3-oxo-8-(3-(pyridin-2-ylamino)propoxy)-2-(2,2,2-trifluoroethyl)-2,3,4,5-tetrahydro-1H-benzo[c]azepin-4-yl)acetic acid]	−5.5 ± 13.4%	− (mean change from the baseline was −60% or less at a P-value of 0.05 or higher)	–	–	–
≤ 20 nM	moderate	CNc1cccc(CCOc2ccc3c(c2)CN(CC(F)(F)F)C(=O)[C@H](CC(=O)O)C3)n1 [SB-273005, (S)-2-(8-(2-(6-(methylamino)pyridin-2-yl)ethoxy)-3-oxo-2-(2,2,2-trifluoroethyl)-2,3,4,5-tetrahydro-1H-benzo[c]azepin-4-yl)acetic acid]	−33.0 ± 11.6%	+ (mean change from the baseline was −60% or less at a P-value of less than 0.05)	–	–	–
–	moderate	N=C(N)Nc1cccc(C(=O)NCC(=O)NC(CC(=O)O)c2cc(Cl)cc(Cl)c2)c1 (centres unmarked) [SC-68448, 3-(3,5-Dichlorophenyl)-3-(2-(3-guanidinobenzamido)acetamido)propanoic acid]	−83.8 ± 7.7%	++ (mean change from the baseline was −65% or more at a P-value of less than 0.01)	inhibit binding	–	–
≤ 100 nM	low	Cc1cc(C)c(S(=O)(=O)N[C@@H](CNC(=O)c2ccc3c(cnn3CCCNc3ncc[nH]3)c2)C(=O)O)c(C)c1 [SM-256, (S)-3-(1-(3-((1H-imidazol-2-yl)amino)propyl)-1H-indazole-5-carboxamido)-2-((2,4,6-trimethylphenyl)sulfonamido)propanoic acid]	−22.5 ± 19.6%	–	–	–	–
